Experimental data from ChEMBL document CHEMBL1909046, “DrugMatrix in vitro pharmacology data”.

Experiments:
[1] = molecular target: 5-hydroxytryptamine receptor 4 (Cavia porcellus, UniProt O70528); assay type: cell membranes, Dunkin-Hartley, Striatum, Membrane; further: in other assays of this panel Not Active means under 50% inhibition at 10 µM
Substance-P receptor = Substance-P receptor (Homo sapiens, UniProt P25103); assay type: cell membranes, Membrane; conditions: cho; further: in other assays of this panel Not Active means under 50% inhibition at 10 µM
[2] = molecular target: C-C chemokine receptor type 5 (Homo sapiens, UniProt P51681); assay type: cell membranes, HEK293, Membrane; further: in other assays of this panel Not Active means under 50% inhibition at 10 µM
Glycine receptor = Glycine receptor (Rattus norvegicus, UniProt P22771+P24524+P07727+P20781); assay type: cell membranes, Wistar, Spinal cord, Membrane; further: in other assays of this panel Not Active means under 50% inhibition at 10 µM
[3] = DRUGMATRIX: Phosphodiesterase PDE4 enzyme inhibition (substrate: [3H]cAMP + cAMP); conditions: u-937, Not Active = under 50% inhibition at 10 µM
[4] = DRUGMATRIX: Platelet-Derived Growth Factor (PDGF) radioligand binding (ligand: [125I] PDGF); assay type: cell-based; conditions: nih3t3; Not Active = under 50% inhibition at 10 µM
[5] = molecular target: Receptor tyrosine-protein kinase erbB-2 (Homo sapiens, UniProt P04626); assay type: cell-based; conditions: insect cells

Chain of 5-hydroxytryptamine receptor 4 (O70528 whole entry): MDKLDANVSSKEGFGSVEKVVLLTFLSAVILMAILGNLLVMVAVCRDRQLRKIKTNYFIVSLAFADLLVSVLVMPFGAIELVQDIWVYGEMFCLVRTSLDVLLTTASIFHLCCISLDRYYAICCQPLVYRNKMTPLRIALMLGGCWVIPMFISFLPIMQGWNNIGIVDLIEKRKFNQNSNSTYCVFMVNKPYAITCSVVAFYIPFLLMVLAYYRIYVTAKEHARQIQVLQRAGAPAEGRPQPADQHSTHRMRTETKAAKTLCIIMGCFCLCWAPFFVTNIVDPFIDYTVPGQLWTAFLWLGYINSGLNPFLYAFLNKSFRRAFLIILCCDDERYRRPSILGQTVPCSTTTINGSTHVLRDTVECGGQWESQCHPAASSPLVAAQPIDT
Chain of Substance-P receptor (P25103 whole entry): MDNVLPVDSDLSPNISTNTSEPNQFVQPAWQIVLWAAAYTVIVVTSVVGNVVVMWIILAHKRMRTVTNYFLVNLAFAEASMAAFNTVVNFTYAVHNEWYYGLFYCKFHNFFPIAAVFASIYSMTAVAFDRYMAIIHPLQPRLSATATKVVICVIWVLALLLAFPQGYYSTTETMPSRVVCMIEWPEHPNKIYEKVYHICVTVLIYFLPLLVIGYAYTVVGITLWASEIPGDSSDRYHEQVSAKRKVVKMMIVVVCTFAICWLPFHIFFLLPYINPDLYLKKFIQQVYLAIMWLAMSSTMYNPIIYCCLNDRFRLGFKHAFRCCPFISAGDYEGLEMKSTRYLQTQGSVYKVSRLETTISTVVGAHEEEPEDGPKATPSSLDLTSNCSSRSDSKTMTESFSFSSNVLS
Chain of C-C chemokine receptor type 5 (P51681 whole entry): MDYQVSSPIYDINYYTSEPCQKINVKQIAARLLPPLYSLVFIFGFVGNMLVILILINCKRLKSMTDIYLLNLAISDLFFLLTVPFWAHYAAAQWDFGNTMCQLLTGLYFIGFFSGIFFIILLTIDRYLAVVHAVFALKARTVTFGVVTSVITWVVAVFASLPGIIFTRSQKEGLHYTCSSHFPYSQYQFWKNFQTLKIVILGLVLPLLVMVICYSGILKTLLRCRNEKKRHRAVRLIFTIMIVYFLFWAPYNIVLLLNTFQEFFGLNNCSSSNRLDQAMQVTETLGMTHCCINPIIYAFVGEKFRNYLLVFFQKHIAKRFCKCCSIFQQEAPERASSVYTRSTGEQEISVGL

Row | Compound | IC50 [1] | IC50 (Substance-P receptor) | IC50 ([2]; hek293) | IC50 (Glycine receptor) | IC50 [3] | Ki [3] | IC50 [4] | Ki [4] | IC50 [5] | IC50 ([1]; read-out: IC50) [µM] | Ki ([1]; read-out: Ki) [µM] | IC50 ([2]; read-out: IC50) [µM] | Ki ([2]; read-out: Ki) [µM] | IC50 ([3]; read-out: IC50) [µM] | Ki [1] | Ki (Substance-P receptor) | Ki ([2]; hek293) | Ki (Glycine receptor) | Ki [5]
1 | CC[C@@]1(O)C(=O)OCc2c1cc1n(c2=O)Cc2cc3c(CN(C)C)c(O)ccc3nc2-1 [TOPOTECAN] | Not Active | Not Active | Not Active | Not Active | Not Active | Not Active | Not Active | Not Active | Not Active | – | – | – | – | – | – | – | – | – | –
2 | C#C[C@]1(O)CC[C@H]2[C@@H]3[C@H](C)CC4=C(CCC(=O)C4)[C@H]3CC[C@@]21C [TIBOLONE] | Not Active | Not Active | Not Active | Not Active | Not Active | Not Active | Not Active | Not Active | Not Active | – | – | – | – | – | – | – | – | – | –
3 | Oc1ccc(/C=C/c2cc(O)cc(O)c2)cc1 [RESVERATROL] | Not Active | Not Active | Not Active | Not Active | Not Active | Not Active | Not Active | Not Active | Not Active | – | – | – | – | – | – | – | – | – | –
4 | Cc1ccc(Cl)c(Nc2ccccc2C(=O)O)c1Cl [MECLOFENAMIC ACID] | Not Active | Not Active | Not Active | Not Active | Not Active | Not Active | Not Active | Not Active | Not Active | – | – | – | – | – | – | – | – | – | –
5 | Cc1ccnc(NS(=O)(=O)c2ccc(N)cc2)n1 [SULFAMERAZINE] | Not Active | Not Active | Not Active | Not Active | Not Active | Not Active | Not Active | Not Active | Not Active | – | – | – | – | – | – | – | – | – | –
6 | CCOc1cc(N)c(Cl)cc1C(=O)NCC1CN(Cc2ccc(F)cc2)CCO1 (centres undefined) [MOSAPRIDE] | – | Not Active | Not Active | Not Active | Not Active | Not Active | Not Active | Not Active | Not Active | 0.882 | 0.147 | – | – | – | – | – | – | – | –
7 | C[C@]12CCC(=O)C[C@@H]1CC[C@@H]1[C@@H]2CC[C@]2(C)[C@@H](O)CC[C@@H]12 [STANOLONE] | Not Active | Not Active | Not Active | Not Active | Not Active | Not Active | Not Active | Not Active | Not Active | – | – | – | – | – | – | – | – | – | –
8 | C[N+]1(C)[C@@H]2C[C@@H](OC(=O)[C@H](CO)c3ccccc3)C[C@H]1[C@@H]1O[C@@H]12.[Br-] [METHSCOPOLAMINE BROMIDE] | Not Active | Not Active | Not Active | Not Active | Not Active | Not Active | Not Active | Not Active | Not Active | – | – | – | – | – | – | – | – | – | –
9 | OC[C@@H](O)[C@@H](O)[C@H](O)[C@H](O)CO [MANNITOL] | Not Active | Not Active | Not Active | Not Active | Not Active | Not Active | Not Active | Not Active | Not Active | – | – | – | – | – | – | – | – | – | –
10 | O=C(O)c1cc(/N=N/c2ccc(S(=O)(=O)Nc3ccccn3)cc2)ccc1O [SULFASALAZINE] | Not Active | Not Active | Not Active | Not Active | Not Active | Not Active | Not Active | Not Active | Not Active | – | – | – | – | – | – | – | – | – | –
11 | CC1=C(/C=C/C(C)=C/C=C/C(C)=C/C(=O)O)C(C)(C)CCC1 [TRETINOIN] | Not Active | Not Active | Not Active | Not Active | Not Active | Not Active | Not Active | Not Active | Not Active | – | – | – | – | – | – | – | – | – | –
12 | CC[C@H](C)C(=O)O[C@H]1CCC=C2C=C[C@H](C)[C@H](CC[C@@H]3C[C@@H](O)CC(=O)O3)[C@H]21 [MEVASTATIN] | Not Active | Not Active | Not Active | Not Active | Not Active | Not Active | Not Active | Not Active | Not Active | – | – | – | – | – | – | – | – | – | –
13 | CCN(CC)C(=S)SSC(=S)N(CC)CC | Not Active | Not Active | – | Not Active | – | – | Not Active | Not Active | Not Active | – | – | 23.7 | 18.3 | 4.8 | – | – | – | – | –
14 | O=[As][O-].[Na+] [SODIUM ARSENITE] | Not Active | Not Active | Not Active | Not Active | Not Active | Not Active | Not Active | Not Active | Not Active | – | – | – | – | – | – | – | – | – | –
15 | CCN(CC)N=O [N-NITROSODIETHYLAMINE] | Not Active | Not Active | Not Active | Not Active | Not Active | Not Active | Not Active | Not Active | Not Active | – | – | – | – | – | – | – | – | – | –
16 | Nc1nc(N)c2nc(-c3ccccc3)c(N)nc2n1 | Not Active | Not Active | Not Active | Not Active | Not Active | Not Active | Not Active | Not Active | Not Active | – | – | – | – | – | – | – | – | – | –
17 | CCN(CC)CCNC(=O)c1cc(Cl)c(N)cc1OC [METOCLOPRAMIDE] | Not Active | Not Active | Not Active | Not Active | Not Active | Not Active | Not Active | Not Active | Not Active | – | – | – | – | – | – | – | – | – | –
18 | Cc1cc2c(s1)Nc1ccccc1N=C2N1CCN(C)CC1 [OLANZAPINE] | Not Active | Not Active | Not Active | Not Active | – | – | – | – | Not Active | – | – | – | – | – | – | – | – | – | –
19 | Cc1nnc(NS(=O)(=O)c2ccc(N)cc2)s1 [SULFAMETHIZOLE] | Not Active | Not Active | Not Active | Not Active | Not Active | Not Active | Not Active | Not Active | Not Active | – | – | – | – | – | – | – | – | – | –
20 | CC#C[C@]1(O)CC[C@H]2[C@@H]3CCC4=CC(=O)CCC4=C3[C@@H](c3ccc(N(C)C)cc3)C[C@@]21C [MIFEPRISTONE] | Not Active | Not Active | Not Active | Not Active | Not Active | Not Active | Not Active | Not Active | Not Active | – | – | – | – | – | – | – | – | – | –
21 | CS(=O)(=O)c1ccc(C2=C(c3ccccc3)C(=O)OC2)cc1 [ROFECOXIB] | Not Active | Not Active | Not Active | Not Active | Not Active | Not Active | Not Active | Not Active | Not Active | – | – | – | – | – | – | – | – | – | –
22 | CC1(C)[C@H](C(=O)O)N2C(=O)C[C@H]2S1(=O)=O [SULBACTAM] | Not Active | Not Active | Not Active | Not Active | Not Active | Not Active | Not Active | Not Active | Not Active | – | – | – | – | – | – | – | – | – | –
23 | CO[C@@H]1[C@@H](OC)[C@H](C)[C@@](O)(CC(=O)O)O[C@H]1[C@H](C)[C@H]1O[C@@]2(CC[C@@](C)([C@H]3CC[C@@](C)([C@@H]4O[C@@H]([C@H]5O[C@](C)(O)[C@H](C)C[C@@H]5C)C[C@@H]4O[C@@H]4C[C@H](OC)[C@@H](OC)[C@H](C)O4)O3)O2)C[C@H](O)[C@H]1C.N [MADURAMICIN] | Not Active | Not Active | Not Active | Not Active | Not Active | Not Active | Not Active | Not Active | Not Active | – | – | – | – | – | – | – | – | – | –
24 | CNCCCC12CCC(c3ccccc31)c1ccccc12 [MAPROTILINE] | Not Active | Not Active | Not Active | Not Active | – | – | – | – | Not Active | – | – | – | – | – | – | – | – | – | –
25 | LEAD(IV) ACETATE | Not Active | Not Active | Not Active | Not Active | Not Active | Not Active | Not Active | Not Active | Not Active | – | – | – | – | – | Not Active | Not Active | Not Active | Not Active | Not Active
26 | O=C(c1ccccc1)c1ccc2n1CCC2C(=O)O (centres undefined) [KETOROLAC] | Not Active | Not Active | Not Active | Not Active | Not Active | Not Active | Not Active | Not Active | Not Active | – | – | – | – | – | – | – | – | – | –
27 | CC[C@H](C)[C@@H](CO[C@@H](Cc1ccccc1)C(=O)N[C@@H](CCS(C)(=O)=O)C(=O)OC(C)C)NC[C@@H](N)CS | Not Active | Not Active | Not Active | Not Active | Not Active | Not Active | Not Active | Not Active | Not Active | – | – | – | – | – | – | – | – | – | –
28 | CN1C(=O)OC(C)(C)C1=O [TRIMETHADIONE] | Not Active | Not Active | Not Active | Not Active | Not Active | Not Active | Not Active | Not Active | Not Active | – | – | – | – | – | – | – | – | – | –
29 | CCC(C)(C)C(=O)O[C@H]1C[C@@H](C)C=C2C=C[C@H](C)[C@H](CC[C@@H]3C[C@@H](O)CC(=O)O3)[C@H]21 [SIMVASTATIN] | Not Active | Not Active | Not Active | Not Active | Not Active | Not Active | Not Active | Not Active | Not Active | – | – | – | – | – | – | – | – | – | –
30 | CN(C)CCC=C1c2ccccc2COc2ccccc21 [DOXEPIN] | Not Active | Not Active | Not Active | Not Active | – | – | – | – | Not Active | – | – | – | – | – | – | – | – | – | –
